Test results taken from ChEMBL document CHEMBL5465560, “Selectivity Literature for EUbOPEN Chemogenomic Library” (2024).

Columns and labels:
[1] = target: Ephrin type-A receptor 5 (Homo sapiens) (UniProt P54756); test: Selectivity interaction (KinomeScan (DiscoverX)) EUB0000666a EPHA5; conditions: at 10 µM
[2] = target: Histone-lysine N-methyltransferase SETD2 (Homo sapiens) (UniProt Q9BYW2); conditions: at 10 µM
[3] = target: Vascular endothelial growth factor receptor 1 (Homo sapiens) (UniProt P17948); test: Selectivity interaction (Kinase panel (Eurofins)) EUB0001564a FLT1; conditions: at 1 µM
[4] = target: Phosphatidylinositol 3-kinase catalytic subunit type 3 (Homo sapiens, UniProt Q8NEB9); test: Selectivity interaction (ActivX KiNativ screen (kinase selectivity in THP-1 cell lysates)) EUB0000639a PIK3C3; assay type: subcellular; conditions: lysate, at 5 µM
[5] = target: Cyclin-dependent kinase 13 (Homo sapiens, UniProt Q14004); test: Selectivity interaction (KinomeScan (DiscoverX)) EUB0000595a CDK13; conditions: at 10 µM
Chain of Cyclin-dependent kinase 13 (Q14004 whole entry, looked up): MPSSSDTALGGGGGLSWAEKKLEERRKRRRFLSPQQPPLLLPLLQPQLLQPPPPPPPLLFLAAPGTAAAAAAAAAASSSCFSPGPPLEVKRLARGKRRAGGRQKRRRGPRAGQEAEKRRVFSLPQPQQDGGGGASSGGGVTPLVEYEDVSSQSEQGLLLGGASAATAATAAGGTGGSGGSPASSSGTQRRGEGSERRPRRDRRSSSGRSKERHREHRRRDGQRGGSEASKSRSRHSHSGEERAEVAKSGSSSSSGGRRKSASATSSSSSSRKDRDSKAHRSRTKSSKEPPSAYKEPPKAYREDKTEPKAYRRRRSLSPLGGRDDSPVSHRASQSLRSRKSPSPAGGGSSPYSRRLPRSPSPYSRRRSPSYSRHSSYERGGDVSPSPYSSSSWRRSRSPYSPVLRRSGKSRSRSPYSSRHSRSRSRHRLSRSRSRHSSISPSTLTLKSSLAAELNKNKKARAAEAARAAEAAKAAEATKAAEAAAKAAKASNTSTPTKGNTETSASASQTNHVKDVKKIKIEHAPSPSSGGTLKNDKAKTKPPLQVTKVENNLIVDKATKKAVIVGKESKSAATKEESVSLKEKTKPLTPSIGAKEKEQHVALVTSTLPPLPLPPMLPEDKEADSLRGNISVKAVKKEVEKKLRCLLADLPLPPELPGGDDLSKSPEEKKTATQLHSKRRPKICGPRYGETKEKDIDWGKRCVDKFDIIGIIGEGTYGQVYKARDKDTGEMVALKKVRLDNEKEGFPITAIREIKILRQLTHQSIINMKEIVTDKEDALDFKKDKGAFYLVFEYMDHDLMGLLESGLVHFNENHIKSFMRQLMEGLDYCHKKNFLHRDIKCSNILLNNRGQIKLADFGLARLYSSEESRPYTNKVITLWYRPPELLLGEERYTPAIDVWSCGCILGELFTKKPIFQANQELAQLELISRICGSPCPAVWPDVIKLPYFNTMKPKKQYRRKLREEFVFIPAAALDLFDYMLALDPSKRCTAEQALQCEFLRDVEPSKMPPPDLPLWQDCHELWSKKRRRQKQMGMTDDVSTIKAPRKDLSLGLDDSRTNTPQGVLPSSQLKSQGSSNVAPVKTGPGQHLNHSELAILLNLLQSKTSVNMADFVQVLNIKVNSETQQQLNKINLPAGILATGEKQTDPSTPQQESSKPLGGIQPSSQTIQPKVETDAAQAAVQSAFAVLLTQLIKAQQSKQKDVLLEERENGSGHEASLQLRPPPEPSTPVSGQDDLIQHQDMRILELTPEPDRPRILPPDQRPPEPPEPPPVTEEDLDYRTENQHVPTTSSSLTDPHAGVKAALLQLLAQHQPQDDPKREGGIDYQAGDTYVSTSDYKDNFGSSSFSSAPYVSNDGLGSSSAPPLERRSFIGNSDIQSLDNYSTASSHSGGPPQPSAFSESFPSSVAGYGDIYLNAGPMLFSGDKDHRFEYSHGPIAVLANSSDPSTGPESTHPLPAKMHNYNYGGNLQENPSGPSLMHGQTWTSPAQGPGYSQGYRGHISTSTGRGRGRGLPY

[6] = target: T1, Mitogen-activated protein kinase kinase kinase 2 (Homo sapiens) (UniProt Q9Y2U5); test: Selectivity interaction (KinomeScan (DiscoverX)) EUB0000595a MAP3K2; conditions: at 10 µM
T1 sequence (whole entry): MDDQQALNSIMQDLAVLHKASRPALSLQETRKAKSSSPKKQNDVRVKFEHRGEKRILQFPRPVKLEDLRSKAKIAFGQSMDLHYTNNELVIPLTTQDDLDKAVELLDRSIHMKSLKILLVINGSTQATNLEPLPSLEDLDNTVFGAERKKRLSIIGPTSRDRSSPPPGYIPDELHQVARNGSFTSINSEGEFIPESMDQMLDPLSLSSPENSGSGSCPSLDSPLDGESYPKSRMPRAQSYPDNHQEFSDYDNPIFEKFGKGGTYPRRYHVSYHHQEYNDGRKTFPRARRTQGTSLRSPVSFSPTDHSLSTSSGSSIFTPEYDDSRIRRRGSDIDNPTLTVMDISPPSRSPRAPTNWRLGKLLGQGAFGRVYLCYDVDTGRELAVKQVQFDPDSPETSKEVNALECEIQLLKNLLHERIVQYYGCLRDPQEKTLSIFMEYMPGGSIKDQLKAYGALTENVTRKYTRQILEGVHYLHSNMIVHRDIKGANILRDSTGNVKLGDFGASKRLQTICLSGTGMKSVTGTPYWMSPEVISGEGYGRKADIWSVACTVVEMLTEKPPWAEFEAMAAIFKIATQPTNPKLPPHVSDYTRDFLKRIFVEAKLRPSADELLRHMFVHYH

[7] = target: T2, Tyrosine-protein kinase Mer (Homo sapiens) (UniProt Q12866); test: Selectivity interaction (KinomeScan (DiscoverX)) EUB0000595a MERTK; conditions: at 10 µM
T2 sequence (whole entry): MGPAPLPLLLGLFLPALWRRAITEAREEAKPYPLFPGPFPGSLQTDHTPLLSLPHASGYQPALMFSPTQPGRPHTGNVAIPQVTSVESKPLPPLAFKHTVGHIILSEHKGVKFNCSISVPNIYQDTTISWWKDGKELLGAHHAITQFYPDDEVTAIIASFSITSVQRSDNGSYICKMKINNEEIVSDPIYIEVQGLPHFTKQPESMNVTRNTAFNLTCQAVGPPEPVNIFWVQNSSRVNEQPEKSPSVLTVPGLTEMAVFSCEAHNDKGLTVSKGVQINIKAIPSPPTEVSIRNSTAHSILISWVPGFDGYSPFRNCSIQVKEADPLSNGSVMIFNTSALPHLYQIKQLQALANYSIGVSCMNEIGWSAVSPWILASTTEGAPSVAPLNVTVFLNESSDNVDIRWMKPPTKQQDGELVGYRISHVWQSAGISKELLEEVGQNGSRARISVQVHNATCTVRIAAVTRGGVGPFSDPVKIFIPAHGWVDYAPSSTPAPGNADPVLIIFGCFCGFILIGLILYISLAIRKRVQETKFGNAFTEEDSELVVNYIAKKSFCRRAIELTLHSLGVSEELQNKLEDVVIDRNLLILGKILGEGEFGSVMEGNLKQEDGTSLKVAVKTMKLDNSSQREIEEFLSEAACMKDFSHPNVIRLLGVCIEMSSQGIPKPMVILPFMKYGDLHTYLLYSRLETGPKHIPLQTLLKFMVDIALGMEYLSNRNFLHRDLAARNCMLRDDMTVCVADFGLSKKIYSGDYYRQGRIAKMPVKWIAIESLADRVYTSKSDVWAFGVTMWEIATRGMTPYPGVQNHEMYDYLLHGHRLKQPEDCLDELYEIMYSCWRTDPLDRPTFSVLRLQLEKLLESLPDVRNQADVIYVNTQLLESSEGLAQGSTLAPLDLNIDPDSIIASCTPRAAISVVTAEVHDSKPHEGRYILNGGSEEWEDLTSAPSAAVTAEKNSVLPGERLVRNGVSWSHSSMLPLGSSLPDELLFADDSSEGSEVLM

[8] = target: TRAF2 and NCK-interacting protein kinase (Homo sapiens) (UniProt Q9UKE5); test: Selectivity interaction (Ambit KINOMEscan and KiNATiv profiling in Jurkat cells) EUB0000090b TNIK; assay type: cell-based; conditions: at 1 µM
[9] = target: Cyclin-dependent kinase 8 (Homo sapiens, UniProt P49336); test: Selectivity interaction (KinomeScan (DiscoverX)) EUB0000045b CDK8
Chain of Cyclin-dependent kinase 8 (P49336 whole entry): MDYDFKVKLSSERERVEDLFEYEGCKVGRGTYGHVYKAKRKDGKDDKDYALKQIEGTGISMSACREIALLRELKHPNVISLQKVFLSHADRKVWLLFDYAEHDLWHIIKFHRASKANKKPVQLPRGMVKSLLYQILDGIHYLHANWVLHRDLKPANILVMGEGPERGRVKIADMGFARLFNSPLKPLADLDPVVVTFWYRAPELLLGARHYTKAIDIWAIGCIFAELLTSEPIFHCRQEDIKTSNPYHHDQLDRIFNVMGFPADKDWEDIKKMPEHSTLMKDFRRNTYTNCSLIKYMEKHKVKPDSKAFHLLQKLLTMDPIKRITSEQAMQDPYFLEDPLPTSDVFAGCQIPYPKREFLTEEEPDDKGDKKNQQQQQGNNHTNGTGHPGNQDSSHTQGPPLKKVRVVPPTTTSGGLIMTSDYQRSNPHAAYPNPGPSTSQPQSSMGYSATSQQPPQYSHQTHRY

[10] = target: Calcium/calmodulin-dependent protein kinase type II subunit beta (Homo sapiens) (UniProt Q13554); test: Selectivity interaction (KinomeScan (DiscoverX)) EUB0001619a CAMK2B; conditions: at 1 µM
Chain of Calcium/calmodulin-dependent protein kinase type II subunit beta (Homo sapiens) (Q13554 whole entry): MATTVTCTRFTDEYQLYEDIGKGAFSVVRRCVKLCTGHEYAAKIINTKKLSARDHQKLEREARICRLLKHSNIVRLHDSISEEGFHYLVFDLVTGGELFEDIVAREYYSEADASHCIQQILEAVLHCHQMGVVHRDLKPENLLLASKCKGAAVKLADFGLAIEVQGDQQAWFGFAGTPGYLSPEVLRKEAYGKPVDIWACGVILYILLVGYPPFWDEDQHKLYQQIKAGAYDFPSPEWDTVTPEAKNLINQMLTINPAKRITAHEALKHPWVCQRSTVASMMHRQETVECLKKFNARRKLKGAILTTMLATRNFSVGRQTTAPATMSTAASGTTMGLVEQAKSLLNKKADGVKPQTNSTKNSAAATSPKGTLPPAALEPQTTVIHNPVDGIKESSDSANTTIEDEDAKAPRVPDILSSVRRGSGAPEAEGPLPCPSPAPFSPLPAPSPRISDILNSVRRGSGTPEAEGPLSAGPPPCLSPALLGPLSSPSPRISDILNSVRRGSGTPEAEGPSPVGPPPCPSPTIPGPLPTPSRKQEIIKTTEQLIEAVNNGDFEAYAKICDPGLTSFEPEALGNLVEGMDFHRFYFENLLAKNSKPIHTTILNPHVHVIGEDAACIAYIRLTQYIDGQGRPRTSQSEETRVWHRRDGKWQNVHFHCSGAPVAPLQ

[11] = target: T3, Muscarinic acetylcholine receptor M1 (Homo sapiens) (UniProt P11229); test: Selectivity interaction (Panel of kinases, GPCRs, ion channels and transporters (enzymatic assay)) EUB0000223bCl CHRM1
T3 sequence (whole entry): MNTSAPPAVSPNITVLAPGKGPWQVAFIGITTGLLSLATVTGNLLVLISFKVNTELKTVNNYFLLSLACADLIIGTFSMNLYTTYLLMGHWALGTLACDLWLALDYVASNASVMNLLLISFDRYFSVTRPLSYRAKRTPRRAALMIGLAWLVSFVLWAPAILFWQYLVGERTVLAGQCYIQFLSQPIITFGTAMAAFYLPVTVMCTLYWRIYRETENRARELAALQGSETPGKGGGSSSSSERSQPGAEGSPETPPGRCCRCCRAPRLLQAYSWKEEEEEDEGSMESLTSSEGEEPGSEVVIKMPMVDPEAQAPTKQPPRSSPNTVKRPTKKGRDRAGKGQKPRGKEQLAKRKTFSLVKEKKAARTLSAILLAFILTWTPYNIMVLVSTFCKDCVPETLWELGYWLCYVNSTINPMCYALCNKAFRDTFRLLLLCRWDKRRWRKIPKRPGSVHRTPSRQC

[12] = target: Tyrosine-protein kinase JAK2 (Homo sapiens, UniProt O60674); test: Selectivity interaction (Kinase panel (Z-LYTE Assay)) EUB0001632a JAK2; conditions: at 10 µM
[13] = target: CDC7/DBF4 (Cell division cycle 7-related protein kinase/Activator of S phase kinase) (Homo sapiens) (UniProt Q9UBU7+O00311); test: Selectivity interaction (ProQinase) EUB0000171b CDC7; assay type: protein-complex assay
Chain of CDC7/DBF4 (Cell division cycle 7-related protein kinase/Activator of S phase kinase) (Homo sapiens) (O00311 whole entry, looked up): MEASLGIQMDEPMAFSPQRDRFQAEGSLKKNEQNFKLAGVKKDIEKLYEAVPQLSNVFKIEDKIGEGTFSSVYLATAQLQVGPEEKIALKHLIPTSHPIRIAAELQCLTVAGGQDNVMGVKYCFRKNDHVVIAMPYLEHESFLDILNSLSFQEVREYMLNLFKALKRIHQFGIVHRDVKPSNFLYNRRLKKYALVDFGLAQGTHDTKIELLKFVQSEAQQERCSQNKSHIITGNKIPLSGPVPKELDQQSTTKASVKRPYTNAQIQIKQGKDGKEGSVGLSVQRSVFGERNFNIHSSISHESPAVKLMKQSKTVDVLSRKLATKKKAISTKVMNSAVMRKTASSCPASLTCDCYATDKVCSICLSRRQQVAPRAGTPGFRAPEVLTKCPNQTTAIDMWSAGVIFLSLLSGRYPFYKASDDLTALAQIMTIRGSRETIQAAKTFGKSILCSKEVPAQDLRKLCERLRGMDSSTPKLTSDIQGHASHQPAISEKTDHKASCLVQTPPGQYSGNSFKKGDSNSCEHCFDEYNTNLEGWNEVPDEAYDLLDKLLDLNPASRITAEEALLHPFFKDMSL
Chain of CDC7/DBF4 (Cell division cycle 7-related protein kinase/Activator of S phase kinase) (Homo sapiens) (Q9UBU7 whole entry, looked up): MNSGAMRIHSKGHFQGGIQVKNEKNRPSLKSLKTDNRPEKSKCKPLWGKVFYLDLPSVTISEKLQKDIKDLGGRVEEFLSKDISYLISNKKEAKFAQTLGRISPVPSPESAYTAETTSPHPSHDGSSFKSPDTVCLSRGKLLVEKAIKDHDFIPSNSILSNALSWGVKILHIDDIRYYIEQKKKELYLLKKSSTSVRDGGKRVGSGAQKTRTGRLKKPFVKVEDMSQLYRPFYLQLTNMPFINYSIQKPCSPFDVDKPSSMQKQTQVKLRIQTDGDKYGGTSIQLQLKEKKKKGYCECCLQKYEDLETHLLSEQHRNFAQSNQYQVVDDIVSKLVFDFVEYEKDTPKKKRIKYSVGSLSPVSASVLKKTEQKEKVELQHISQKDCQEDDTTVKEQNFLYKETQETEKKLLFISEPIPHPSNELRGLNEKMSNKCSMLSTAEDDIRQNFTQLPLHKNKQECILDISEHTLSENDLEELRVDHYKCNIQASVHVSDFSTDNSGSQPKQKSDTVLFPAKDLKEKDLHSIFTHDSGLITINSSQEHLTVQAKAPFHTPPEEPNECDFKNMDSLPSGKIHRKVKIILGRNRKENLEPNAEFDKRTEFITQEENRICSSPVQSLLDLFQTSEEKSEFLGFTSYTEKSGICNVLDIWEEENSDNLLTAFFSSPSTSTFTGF

Chain of Ephrin type-A receptor 5 (Homo sapiens) (P54756 whole entry): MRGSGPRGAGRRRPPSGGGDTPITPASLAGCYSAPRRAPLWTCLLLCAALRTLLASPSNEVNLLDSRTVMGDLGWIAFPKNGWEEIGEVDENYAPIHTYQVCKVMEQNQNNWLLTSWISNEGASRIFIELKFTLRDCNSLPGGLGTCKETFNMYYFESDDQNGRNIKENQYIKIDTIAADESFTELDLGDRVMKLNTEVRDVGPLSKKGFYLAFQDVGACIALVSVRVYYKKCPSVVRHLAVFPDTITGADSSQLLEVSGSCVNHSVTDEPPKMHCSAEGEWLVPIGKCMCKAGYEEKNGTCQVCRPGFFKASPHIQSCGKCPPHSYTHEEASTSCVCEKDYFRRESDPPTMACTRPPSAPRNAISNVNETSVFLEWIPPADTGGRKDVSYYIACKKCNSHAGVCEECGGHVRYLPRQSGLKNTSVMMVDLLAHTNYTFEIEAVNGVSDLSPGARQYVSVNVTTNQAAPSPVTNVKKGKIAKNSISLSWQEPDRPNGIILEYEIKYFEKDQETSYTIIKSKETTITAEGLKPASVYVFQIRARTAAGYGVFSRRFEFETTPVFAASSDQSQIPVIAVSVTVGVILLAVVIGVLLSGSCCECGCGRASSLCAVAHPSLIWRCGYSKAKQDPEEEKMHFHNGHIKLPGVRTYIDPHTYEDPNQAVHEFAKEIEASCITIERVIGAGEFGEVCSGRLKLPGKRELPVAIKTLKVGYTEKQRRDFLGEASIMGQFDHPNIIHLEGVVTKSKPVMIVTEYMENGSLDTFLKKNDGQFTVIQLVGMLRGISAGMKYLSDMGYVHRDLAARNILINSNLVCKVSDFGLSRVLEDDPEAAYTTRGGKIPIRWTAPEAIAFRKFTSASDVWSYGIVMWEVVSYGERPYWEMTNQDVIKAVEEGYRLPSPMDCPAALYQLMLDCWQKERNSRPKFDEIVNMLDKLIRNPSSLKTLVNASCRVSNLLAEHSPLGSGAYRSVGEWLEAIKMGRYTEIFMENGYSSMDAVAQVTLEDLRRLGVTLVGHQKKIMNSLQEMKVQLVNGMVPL

O=C(NOC[C@H](O)CO)c1ccc(F)c(F)c1Nc1ccc(I)cc1F gave a % of control [1] of 96%.
With CNCCN1CCC(c2cc(CN(C)C(=O)c3cccc(Oc4ccccc4)c3)ccn2)CC1 the % activity [2] was > 90%.
With CC[C@@H](Nc1c(C#N)c(-c2ccc(-c3cccc(C)c3F)cc2)nc2cnccc12)C(=O)O [BAY-091] the % of inhibition [3] was 56.8%.
Work on CC[C@@H]1[C@H](F)C(=O)N[C@@H]1COc1nccc2cc(C(N)=O)c(OC)cc12 [ZIMLOVISERTIB] yielded a % of inhibition [4] of 30.7%.
With COCC(=O)NC/C=C/c1ccc2ncnc(Nc3ccc(Oc4ccc(C)nc4)c(C)c3)c2c1 [CP-724714] the % of control [5] was 100%, the % of control [6] was 100% and the % of control [7] was 97%.
Molecule CN(C)C/C=C/C(=O)Nc1ccc(C(=O)N2CCCC(Nc3ncc(Cl)c(-c4c[nH]c5ccccc45)n3)C2)cc1 (stereo not given) has a % of control [8] of 91%.
C=CC(=O)Nc1cc(-n2c(=O)ccc3cnc4ccc(-c5ccc(NS(C)(=O)=O)cc5)cc4c32)ccc1C gave a % of control ([9]; at 1 µM) of 76% and a % of control ([9]; at 10 µM) of 62%.
N#Cc1cccc(-c2c[nH]c3ncnc(N4CCOCC4)c23)c1 gave a % of control [10] of 83%.
Work on COc1cc(C(=O)N2CC[C@@H](O)[C@@H](N)C2)cc2nc(-c3cc4ccccc4n3CC3CC3)n(C)c12 yielded a pXC50 [11] of 5.3 M.
Work on Cn1cc(-n2cnc3c(NCc4nc5cc(Cl)c(Cl)cc5[nH]4)nc(N4CCOCC4)nc32)cn1 yielded a % of control [12] of 3.68%.
With C=CC(=O)Nc1cccc(C(=O)Nc2ccc(Nc3cc(-c4[nH]c(SC)nc4C)ccn3)cc2)c1 the % of control ([13]; at 1 µM) was 94% and the % of control ([13]; at 5 µM) was 89%.
